Laboratory results published in patent US9487513B2, “Substituted pyrazolo[1,5-A]pyridines, their preparation and use as medicaments” (LABORATORIOS DEL DR. ESTEVE S.A., priority 2012, dated 2016).
Counter-ions that a name gives are not always drawn.

Molecular target: T1, σ1-receptor (Cavia porcellus, UniProt Q60492)
T1 construct: Guinea pig brains were homogenized in 10 vols; (w/v) of Tris-HCl 50 mM 0.32 M sucrose; from tissue; host or cells: guinea pig brain membranes
Assay: σ1-receptor binding assay, [3H]-(+)-pentazocine, guinea pig brain membranes
Settings: radioligand [3H]-(+)-pentazocine at 5.0 nM; guinea pig brain membrane; 150 min at 37° C.; nonspecific binding with 1 μM haloperidol
Method: Brain membrane preparation and binding assays for the σ1-receptor were performed as described (DeHaven-Hudkins, D. L., L. C. Fleissner, and F. Y. Ford-Rice, 1992, Characterization of the binding of [^3H](+)pentazocine to σ recognition sites in guinea pig brain, Eur. J. Pharmacol. 227, 371-378) with some modifications. Guinea pig brains were homogenized in 10 vols. (w/v) of Tris-HCl 50 mM 0.32 M sucrose, pH 7.4, with a Kinematica Polytron PT 3000 at 15000 r.p.m. for 30 s. The homogenate was centrifuged at 1000 g for 10 min at 4° C. and the supernatants collected and centrifuged again at 48000 g for 15 min at 4° C. The pellet was resuspended in 10 volumes of Tris-HCl buffer (50 mM, pH 7.4), incubated at 37° C. for 30 min, and centrifuged at 48000 g for 20 min at 4° C. Following this, the pellet was re-suspended in fresh Tris-HCl buffer (50 mM, pH 7.4) and stored on ice until use.
The radioligand used was [^3H]-(+)-pentazocine at 5.0 nM and the final volume was 200 μl. The incubation was initiated with the addition of 100 μl of membrane at a final tissue concentration of approximately 5 mg tissue net weight/mL and the incubation time was 150 m. at 37° C. After incubation, the membranes were collected onto pretreated glass fiber filterplate (MultiScreen-FC, Millipore), with polyethylenimine 0.1%. The filters were washed two times with 200 μl of washing buffer (50 mM Tris Cl, pH=7.4) and then 25 μl of Ecoscint H liquid scintillation cocktail were added. Microplates were allowed to set for several hours and then quantified by liquid scintillation spectrophotometry (1450 Microbeta, Wallac). Nonspecific binding was determined with 1 μM haloperidol.

T1 sequence (Q60492 whole entry): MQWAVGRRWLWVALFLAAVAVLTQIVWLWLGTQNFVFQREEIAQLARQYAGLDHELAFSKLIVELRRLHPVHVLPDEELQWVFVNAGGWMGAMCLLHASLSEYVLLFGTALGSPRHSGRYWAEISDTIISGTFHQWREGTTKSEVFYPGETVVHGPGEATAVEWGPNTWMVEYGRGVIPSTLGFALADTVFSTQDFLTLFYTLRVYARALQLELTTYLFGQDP

c1ccc2c(c1)COC21CCN(CCCCOc2cc3n(n2)CCCC3)CC1 [Example 70, 1′-(4-(4,5,6,7-tetrahydropyrazolo[1,5-a]pyridin-2-yloxy)butyl)-3H-spiro[isobenzofuran-1,4′-piperidine]maleate]
Ki: 21.6 nM

c1c(OCCCCN2CCC3CCCCC3C2)nn2c1CCCC2 (stereo not drawn) [Example 68, 2-(4-(4,5,6,7-tetrahydropyrazolo[1,5-a]pyridin-2-yloxy)butyl)decahydroisoquinoline maleate]
Ki: 7.3 nM

c1c(OCCCCN2CCCCC2)nn2c1CCCC2 [Example 61, 2-(4-(piperidin-1-yl)butoxy)-4,5,6,7-tetrahydropyrazolo[1,5-a]pyridine maleate]
Ki: 28.5 nM

c1ccn2nc(OCCCCN3CC[C@H]4CCCC[C@@H]4C3)cc2c1 [Example 51, (4aR,8aS)-2-(4-(pyrazolo[1,5-a]pyridin-2-yloxy)butyl)decahydroisoquinoline maleate]
Ki: 8.3 nM

c1ccc(OC2CCN(CCCCOc3cc4ccccn4n3)CC2)cc1 [Example 23, 2,(4-(4-phenoxypiperidin-1-yl)butoxy)pyrazolo[1,5-a]pyridine oxalate]
Ki: 30.1 nM

CN(CCOc1cc2ccccn2n1)Cc1ccccc1 [Example 24, N-benzyl-N-methyl-2-(pyrazolo[1,5-a]pyridin-2-yloxy)ethanamine oxalate]
Ki: 4.5 nM
